In patent US20160214958A1, “COMPOUNDS AND USE FOR TREATING CANCER” (GLIONOVA AB, priority 2013, published 2016):
Like-named read-outs stand apart in the source and are kept apart here. Blank lines part the entries; values can stand above or below the compound they belong to.

Legend:
[1] = system: glioma stem cell line U3013; test: In vitro cancer cell and CSC viability assay (ATP quantification, CellTiterGlo); format: cell-based, human
Protocol: The ability of Examples S1-S23 to selectively induce cytotoxicity in glioma/glioblastoma cancer cells or glioma/glioblastoma cancer stem cells was determined by quantification of ATP production in glioma stem cell line U3013 in the presence of using CellTiterGlo reagent (Promega). Cells were exposed to compound in serial dilution in the range 1 nM to 50 µM for 24 hours and viability assessed with respect to negative control (dmso, no cell death) and positive control (staurosporine, full cell death). […] The EC50 of S10 remained largely similar at 2, 3 and 4 days of incubation. […] The individual isomers (S21-S23) of racemic S10 were evaluated in order to determine the enantiospecific pharmacology of the individual isomers.
Negative (100% DMSO) and positive (10 mM S10 in 100% DMSO) controls were placed in rows 1-4 and 5-8, respectively, of column 12. The wells were diluted with 190 μl of the corresponding growth media and 5 μl of each well of compound solution transferred to quadruplicate wells of a sterile 384-well black clear bottom plate (BD Falcon) containing GSC at 70% confluency in 45 μl growth media. The plate was incubated for 24 hours, after which the plate was removed from the incubator and each well imaged in bright-field using an Operetta Imaging system (PerkinElmer) at 37° C. and 5% CO2 to determine vacuole accumulation at each concentration. The plate was then allowed to cool to room temperature and each well treated with 25 μl freshly CellTiterGlo (Promega) reagent. The plate was shaken for 15 minutes and luminescence measured using a Victor3 (Perkin Elmer) microtiterplate reader. Total luminescence was normalized relative to control and curve fitting performed using GraphPad Prism (v6.02) software.

U87 glioma cell = settings: at concentrations of 10 micromolar; cited from earlier work
[2] = Pharmacokinetic evaluation of Vacquinol-1 stereoisomers, plasma and brain; format: in vivo, NMRI (SR/RS) or BALB/c (Vrac) mice
Protocol: The pharmacokinetics of Vacquinol-1 (racemic), Vacquinol-1RS and Vacquinol-1SR, were determined in NMRI (SR/RS) or BALB/c (Vrac) mice following single intravenous (i.v.) or per oral (p.o) administration of 2 or 20 mg/kg Vacquinol-1, respectively. Blood and brain samples were taken from animals at the following nominal time points: 15, 30, and 60 minutes, and 2, 4, 6, 8, 24, 48, 72 and 144 hours after dosing (n=3/time-point). Bioanalytical quantification of Vacquinol-1 was analysed in plasma and brain samples by a UPLC-MS/MS.
Pharmacokinetics were calculated by non-compartmental analysis (NCA) from composite (mean) profiles. Nominal sampling times and dose levels have been used for the NCA calculations.

[3] = system: glioma stem cell line U3013; test: In vitro cancer cell and CSC viability assay (ATP quantification, CellTiterGlo); format: cell-based; settings: Homo sapiens; 3000 cells/cm2, after 24 hours; read-out: EC50, viability of GSCs

SMILES: O[C@@H](c1cc(C(F)(F)F)nc2c(C(F)(F)F)cccc12)[C@H]1CCCCN1 (racemic) [mefloquine, (2,8-bis(trifluoromethyl)quinolin-4-yl)(piperidin-2-yl)methanol, reference compound]
IC95 for cell death ([1]; glioblastoma cells (U3013)): 25.2 µM | reduction of U87 glioma cell viability (U87 glioma cell): roughly 50%

EC50 ([1]; Homo sapiens, U3013, 24 hours exposure, read-out: In vitro efficacy (viability) EC50): 2.67 µM | AUClast Plasma ([2]; 2 mg/kg i.v., mice): 14100 ng·h/mL | Cmax Brain ([2]; 2 mg/kg i.v., mice): 777 ng/mL | tlast Brain ([2]; 2 mg/kg i.v., mice): 72 h | tlast Plasma ([2]; 2 mg/kg i.v., mice): 72 h | AUClast Brain ([2]; 20 mg/kg p.o., mice): 157000 ng·h/mL | AUClast Plasma ([2]; 20 mg/kg p.o., mice): 183000 ng·h/mL | Cmax Brain ([2]; 20 mg/kg p.o., mice): 1490 ng/mL | tlast Brain ([2]; 20 mg/kg p.o., mice): 144 h | tlast Plasma ([2]; 20 mg/kg p.o., mice): 144 h | Kp ([2]; NMRI (single stereoisomers SR/RS), BALB/c (racemate), mouse, brain and plasma, 20 mg/kg, after oral dosing, read-out: Cmax exposures ratio (Cmax(brain)/Cmax(plasma))): 0.7 | AUC(0-t) ([2]; NMRI (single stereoisomers SR/RS), BALB/c (racemate), mouse, brain, iv, 2 mg/kg i.v., mice, read-out: AUClast Brain): 9050 ng·h/mL
SMILES: O[C@@H](c1cc(-c2ccc(Cl)cc2)nc2ccccc12)[C@H]1CCCCN1 [Compound S21, (S)-(2-(4-chlorophenyl)quinolin-4-yl)((R)-piperidin-2-yl)methanol]
potency with respect to S10 (viability) ([1]; individual isomers of racemic S10): equal or increased potency

EC50 [3]: 139 µM
SMILES: Cn1nnc2c(C(N)=O)ncn2c1=O [temozolomide, reference compound]
